What is called IC50 is the point on the concentration scale where inhibition reaches its midpoint.

Consider 24 compounds from patent publication US8440674B2, “Substituted pyrimidine compounds as RAF inhibitors and methods of use” (Amgen Inc., priority 2005, dated 2013).

Assay [1] has as its system A375 cells, a human melanoma cell line having the V600E mutant Braf. The experiment in a line: B-Raf cell-based assay (ratio of phospho-ERK1/2 to total ERK1/2). To be noted: A-375, 1 h, P-ERK/total ERK, 60 minute incubation, read-out: IC50 for the inhibition of B-raf as measured by the cell-based assay. As for the experimental part: A cell-based assay was optimized to assay the ability of compounds to inhibit Braf activity in a whole cell context. […] The cell-based assay quantifies the ratio of phospho-ERK1/2 to total ERK1/2 and can thereby assay the cellular inhibition of Braf kinase activity.
A375 cells are plated into 96 well plates and grown to confluence. The cells are then changed into starve media (DMEM/0.1% BSA) for 60 minutes. Compounds in DMSO dose curves are then diluted in starve media and added to cells. […] After a 60 minute incubation the cells are fixed for 20 minutes at room temperature in 4% formaldehyde with 0.1%Triton X-100, protease and phosphatase inhibitors in PBS. The cells are washed four times in PBS then blocked for 60 minutes using a one to one mix of Odyssey blocking buffer (Li-Cor Biosciences, Inc) and PBS. Primary antibodies (rabbit anti-phospho p42/p44 MAPK (P-ERK1/2) from Cell Signaling Technology and mouse anti-ERK2 from Santa Cruz Biotechnology) are diluted in blocking buffer, added to the cells and incubated overnight at 4° C. The cells are then washed four times in PBS/0.1% Tween-20. Secondary antibodies (anti-mouse IRDye 800CW from Rockland, Inc and anti-rabbit AlexaFlour680 from Molecular Probes) are diluted in blocking buffer/0.5% Tween and incubated on cells for 60 minutes. After 4 washes in PBS/0.1% Tween-20 the microplate is scanned on an Odyssey Infrared Imager (Li-Cor Bioscience) which can read the signal given by the two secondary antibodies on their respective channels. The ratio of P-ERK/total ERK is determined and IC50s generated using Excel-XLfit software.

The next assay has as its target recombinant HuBraf V600E (Homo sapiens, UniProt P15056, V600E). The experiment in a line: B-raf Homogenous Time Resolved Fluorescent (HTRF) kinase assay. The assay is classed as biochemical. To be noted: substrate MEK1, 10 uM ATP; threshold lists; read-out: IC50 for the inhibition of B-raf as measured by the HTRF assay. The procedure:
A Homogeneous Time Resolved Fluorescence (HTRF) kinase assay was established to assay the ability of compounds to inhibit human mutant Braf kinase activity on the substrate MEK1. […] The final concentration of the kinase reaction buffer is 50 mM Tris-HCL pH 7.5, 10 mM MgCl2, 0.5% glucose, 0.5 mM DTT, 0.01% BSA.
The detection reaction proceeds for one hour and is read on a RubyStar (BMG Labtech) counter. IC50s for the test compounds are generated using Excel-XLfit software.
(In general: Time-resolved FRET reads energy transfer from a long-lived donor to a nearby acceptor.)

Read-outs that look alike come from different tables or passages of the source. Bounds are passed on as bounds.

Sequence of recombinant HuBraf V600E (P15056 whole entry V600E): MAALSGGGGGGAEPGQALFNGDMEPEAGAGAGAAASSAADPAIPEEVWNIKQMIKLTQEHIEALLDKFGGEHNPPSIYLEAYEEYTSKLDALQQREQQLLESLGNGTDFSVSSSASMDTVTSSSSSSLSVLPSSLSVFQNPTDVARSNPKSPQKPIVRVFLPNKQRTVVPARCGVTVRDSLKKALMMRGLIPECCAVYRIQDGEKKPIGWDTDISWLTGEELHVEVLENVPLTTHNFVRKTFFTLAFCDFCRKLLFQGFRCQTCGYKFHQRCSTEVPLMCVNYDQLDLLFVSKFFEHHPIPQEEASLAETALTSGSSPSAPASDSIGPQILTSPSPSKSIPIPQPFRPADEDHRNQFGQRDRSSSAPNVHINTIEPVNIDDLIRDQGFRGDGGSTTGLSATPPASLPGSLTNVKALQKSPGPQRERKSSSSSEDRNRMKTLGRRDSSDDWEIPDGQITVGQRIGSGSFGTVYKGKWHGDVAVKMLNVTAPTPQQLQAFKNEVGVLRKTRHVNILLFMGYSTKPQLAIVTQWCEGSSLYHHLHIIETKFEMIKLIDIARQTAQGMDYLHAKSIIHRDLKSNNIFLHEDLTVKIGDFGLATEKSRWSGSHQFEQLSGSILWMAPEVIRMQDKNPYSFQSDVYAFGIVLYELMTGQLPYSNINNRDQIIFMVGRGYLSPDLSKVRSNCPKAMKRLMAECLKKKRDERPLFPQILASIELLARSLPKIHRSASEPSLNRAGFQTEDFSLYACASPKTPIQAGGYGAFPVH

Turning to `CNc1ncc2cc(-c3c(C)ccc4c(NC5CCC(C(C)(C)C)CC5)ncnc34)ccc2n1` (stereo not shown) [Example 57, N^4′-(4-(1,1-dimethylethyl)cyclohexyl)-N^2,7′-dimethyl-6,8′-biquinazoline-2,4′-diamine], the IC50 in assay [1] (threshold list) is no more than 500 nM; in assay [1] (threshold lists), no more than 1000 nM; at recombinant HuBraf V600E, no more than 250 nM.

Consider `CNc1ncc2cc(-c3c(C)ccc4c(Nc5ccc6sc(C)nc6c5)ncnc34)ccc2n1` [Example 58, N^2,7′-dimethyl-N^4′-(2-methyl-1,3-benzothiazol-5-yl)-6,8′-biquinazoline-2,4′-diamine], for which the 50% inhibitory concentration (IC50) was no more than 500 nM in assay [1] (threshold list), no more than 1000 nM in assay [1] (threshold lists) and no more than 250 nM at recombinant HuBraf V600E.

On to `CNc1ncc2cc(-c3c(C)ccc4c(Nc5cccc(C(F)(F)F)c5)nn(C)c34)ccc2n1` [Example 63, 6-(1,6-dimethyl-3-((3-(trifluoromethyl)phenyl)amino)-1H-indazol-7-yl)-N-methyl-2-quinazolinamine], for which the IC50 in assay [1] (threshold list) was no more than 500 nM; on recombinant HuBraf V600E, no more than 250 nM.

Regarding `CNc1ncc2cc(-c3c(C)ccc4c(Nc5ccc(OC)c(C(F)(F)F)c5)nn(C)c34)ccc2n1` [Example 64, 6-(1,6-dimethyl-3-((4-(methyloxy)-3-(trifluoromethyl)phenyl)amino)-1H-indazol-7-yl)-N-methyl-2-quinazolinamine], the IC50 in assay [1] (threshold list) was no more than 500 nM; on recombinant HuBraf V600E, no more than 250 nM.

Take `CNc1ncc2cc(-c3c(C)ccc4c(Nc5cccc(OC(F)(F)F)c5)nn(C)c34)ccc2n1` [Example 65, 6-(1,6-dimethyl-3-((3-((trifluoromethyl)oxy)phenyl)amino)-1H-indazol-7-yl)-N-methyl-2-quinazolinamine]: the half-maximal inhibitory concentration (IC50) in assay [1] (threshold list) was no more than 500 nM; at recombinant HuBraf V600E it was no more than 250 nM.

For `CNc1cc(-c2cccnc2Nc2c(C)ccc3c(Nc4cccc(OC(F)(F)F)c4)nccc23)ncn1` [Example 68, 6-methyl-N^5-(3-(6-(methylamino)-4-pyrimidinyl)-2-pyridinyl)-N^1-(3-((trifluoromethyl)oxy)phenyl)-1,5-isoquinolinediamine], the IC50 is no more than 500 nM in assay [1] (threshold list) and no more than 250 nM at recombinant HuBraf V600E.

For `CNc1cc(-c2cccnc2Nc2c(C)ccc3c(Nc4ccc(OC)c(C(F)(F)F)c4)nccc23)ncn1` [Example 70, N^1-(4-methoxy-3-(trifluoromethyl)phenyl)-6-methyl-N^5-(3-(6-(methylamino)pyrimidin-4-yl)pyridin-2-yl)isoquinoline-1,5-diamine], the half-maximal inhibitory concentration (IC50) (in assay [1] (threshold list); on recombinant HuBraf V600E) was no more than 500 nM throughout.

Regarding `CNc1cc(-c2cccnc2Nc2c(C)ccc3c(Nc4ccc5c(c4)NCCC5(C)C)nccc23)ncn1` [Example 72, N^1-(4,4-dimethyl-1,2,3,4-tetrahydro-7-quinolinyl)-6-methyl-N^5-(3-(6-(methylamino)-4-pyrimidinyl)-2-pyridinyl)-1,5-isoquinolinediamine], the half-inhibitory concentration (IC50) in assay [1] (threshold list) was no more than 500 nM; on recombinant HuBraf V600E, no more than 1000 nM.

For `CNc1ncc2cc(-c3c(C)ccc4c(Nc5cccc(OC(C)C)c5)n[nH]c34)ccc2n1` [Example 78, N-methyl-6-(6-methyl-3-((3-((1-methylethyl)oxy)phenyl)amino)-1H-indazol-7-yl)-2-quinazolinamine], the half-maximal inhibitory concentration (IC50) in assay [1] (threshold list) is no more than 500 nM; at recombinant HuBraf V600E, no more than 250 nM.

Regarding `CNc1ncc2cc(-c3c(C)ccc4c(Nc5ccc6c(c5)NCC6(C)C)nccc34)ccc2n1` [Example 79, 6-(1-((3,3-dimethyl-2,3-dihydro-1H-indol-6-yl)amino)-6-methyl-5-isoquinolinyl)-N-methyl-2-quinazolinamine], the results for the IC50 (in assay [1] (threshold list); on recombinant HuBraf V600E) were no more than 500 nM and no more than 250 nM, respectively.

Take `Cc1ccc2c(Nc3ccc4c(c3)NCC4(C)C)nccc2c1Nc1ncccc1-c1ccncn1` [Example 80, N^1-(3,3-dimethyl-2,3-dihydro-1H-indol-6-yl)-6-methyl-N^5-(3-(4-pyrimidinyl)-2-pyridinyl)-1,5-isoquinolinediamine]: the IC50 in assay [1] (threshold list) was no more than 500 nM; at recombinant HuBraf V600E, no more than 250 nM.

Turning to `CNc1ncc2cc(-c3c(C)ccc4c(Nc5ccc6c(c5)NCC6(C)C)ncnc34)ccc2n1` [Example 81, N^4′-(3,3-dimethyl-2,3-dihydro-1H-indol-6-yl)-N^2,7′-dimethyl-6,8′-biquinazoline-2,4′-diamine], the concentration for half-maximal inhibition (IC50) in assay [1] (threshold list) is no more than 500 nM; at recombinant HuBraf V600E, no more than 250 nM.

In the case of `CNc1ncc2cc(-c3c(C)ccc4c(Nc5ccc(C)c(F)c5)nn(C)c34)ccc2n1` [Example 198], the IC50 was no more than 500 nM in assay [1] (threshold list), no more than 1000 nM in assay [1] (threshold lists) and no more than 250 nM on recombinant HuBraf V600E.

Consider `CNc1ncc2cc(-c3c(C)ccc4c(Nc5ccc(-n6ccnc6)cc5)nn(C)c34)ccc2n1` [Example 204], for which the figures for the IC50 (in assay [1] (threshold list); in assay [1] (threshold lists); at recombinant HuBraf V600E) were no more than 500 nM, no more than 1000 nM and no more than 250 nM, respectively.

`CNc1cc(-c2cccnc2Nc2c(C)ccc3c(Nc4cccc(C(F)(F)F)c4)ncnc23)ncn1` [Example 337, 7-methyl-N8-(3-(6-(methylamino)pyrimidin-4-yl)pyridin-2-yl)-N4-(3-(trifluoromethyl)phenyl)quinazoline-4,8-diamine]: the IC50 in assay [1] (threshold lists) was no more than 5000 nM; on recombinant HuBraf V600E, no more than 250 nM.

In the case of `CNc1cc(-c2cccnc2Nc2c(C)ccc3c(Nc4cccc(OC(F)(F)F)c4)ncnc23)ncn1` [Example 343], the IC50 was no more than 500 nM in assay [1] (threshold list) and no more than 250 nM at recombinant HuBraf V600E.

`Cc1ccc(C(F)(F)F)cc1Nc1nccc2c(Nc3ncccc3-c3ncnc4[nH]ccc34)c(C)ccc12` [Example 346]: the half-inhibitory concentration (IC50) in assay [1] (threshold lists) was no more than 5000 nM; at recombinant HuBraf V600E, no more than 500 nM.

Turning to `CNc1cc(-c2cccnc2Nc2c(C)ccc3c(Nc4ccc(Cl)c(C)c4)nccc23)ncn1` [Example 352], the IC50 was no more than 5000 nM in assay [1] (threshold lists) and no more than 250 nM on recombinant HuBraf V600E.

In the case of `CNc1ncc2cc(-c3c(C)sc4c(Nc5ccc(OC)c(C(F)(F)F)c5)nccc34)ccc2n1` [Example 392, 6-(7-(4-methoxy-3-(trifluoromethyl)phenylamino)-2-methylthieno[2,3-c]pyridin-3-yl)-N-methylquinazolin-2-amine], the IC50 was no more than 500 nM in assay [1] (threshold list) and no more than 250 nM on recombinant HuBraf V600E.

With `CNc1ncc2cc(-c3c(C)sc4c(Nc5cccc(C(F)(F)F)c5)nccc34)ccc2n1` [Example 393, N-methyl-6-(2-methyl-7-(3-(trifluoromethyl)phenylamino)thieno[2,3-c]pyridin-3-yl)quinazolin-2-amine], the values for the IC50 (in assay [1] (threshold lists); at recombinant HuBraf V600E) were no more than 5000 nM and no more than 250 nM, respectively.

Regarding `CNc1ncc2cc(-c3c(C)ccc4c(Oc5cccc(C(F)(F)F)c5)nccc34)ccc2n1` [Example 395, N-methyl-6-(6-methyl-1-(3-(trifluoromethyl)phenoxy)isoquinolin-5-yl)quinazolin-2-amine], the IC50 in assay [1] (threshold list) was no more than 500 nM; at recombinant HuBraf V600E it was no more than 250 nM.

As to `CNc1ncc2cc(-c3c(C)ccc4c(Nc5cccc(C(F)(F)F)c5)nsc34)ccc2n1` [Example 398, N-methyl-6-(6-methyl-3-(3-(trifluoromethyl)phenylamino)benzo[d]isothiazol-7-yl)quinazolin-2-amine], the figures for the IC50 (in assay [1] (threshold list); on recombinant HuBraf V600E) were no more than 500 nM and no more than 250 nM, respectively.

Regarding `CNc1ncc2cc(-c3c(C)ccc4c(Nc5ccc(OC)c(C(F)(F)F)c5)nsc34)ccc2n1` [Example 399, 6-(3-(4-methoxy-3-(trifluoromethyl)phenylamino)-6-methylbenzo[d]isothiazol-7-yl)-N-methylquinazolin-2-amine], the values for the 50% inhibitory concentration (IC50) (in assay [1] (threshold list); on recombinant HuBraf V600E) were no more than 500 nM and no more than 250 nM, respectively.

Take `CNc1ncc2cc(-c3c(C)cnc4c(Nc5ccc(OC)c(C(F)(F)F)c5)nccc34)ccc2n1` [Example 410]: the IC50 in assay [1] (threshold list) is no more than 500 nM; on recombinant HuBraf V600E it was no more than 1000 nM.
